From ChEMBL document CHEMBL6153094, “Rationally designed highly amphipathic antimicrobial peptides demonstrating superior bacterial selectivity relative to the corresponding α-helix peptide” (Eur J Med Chem, 2025) come the findings set out here.

Each structure is given as a SMILES string. In brackets after ≈: the same amount, converted by molar mass.

What all share (type): functional
One assay concerns Escherichia coli. The assay can be described thus: Antimicrobial activity against Escherichia coli ATCC 25922 assessed as inhibition of visible bacterial growth incubated for 18 hrs by broth microdilution method.
Assay [1] concerns Staphylococcus aureus. The assay can be described thus: Antimicrobial activity against gentamicin-resistant Staphylococcus aureus ATCC 25923 assessed as inhibition of visible bacterial growth incubated for 18 hrs by broth-dilution method.
Assay [2] deals with Pseudomonas aeruginosa. As to the kind of experiment: Antimicrobial activity against gentamicin-resistant Pseudomonas aeruginosa ATCC 27853 assessed as inhibition of visible bacterial growth incubated for 18 hrs by broth microdilution method.
The test system of a further assay is Acinetobacter baumannii. The assay can be described thus: Antimicrobial activity against Acinetobacter baumannii ATCC 19606 assessed as inhibition of visible bacterial growth incubated for 18 hrs by broth microdilution method.
Assay [3] relates to Pseudomonas aeruginosa. The assay can be described thus: Resistance fold, ratio of MIC for Pseudomonas aeruginosa ATCC 27853 measured after 10th passage to MIC for Pseudomonas aeruginosa ATCC 27853 measured immediately.
The test system of assay [4] is Staphylococcus aureus. As to the kind of experiment: Resistance fold, ratio of MIC for Staphylococcus aureus ATCC 25923 measured after 8th passage to MIC for Staphylococcus aureus ATCC 25923 measured immediately.
The next assay relates to Klebsiella pneumoniae. As to the kind of experiment: Antimicrobial activity against Klebsiella pneumoniae ATCC 700603 assessed as inhibition of visible bacterial growth incubated for 18 hrs by broth microdilution method.
Assay [5] relates to Pseudomonas aeruginosa. As to the kind of experiment: Antimicrobial activity against Pseudomonas aeruginosa ATCC 27853 assessed as inhibition of visible bacterial growth incubated for 18 hrs by broth microdilution method.
The test system of a further assay is Bacillus subtilis. As to the kind of experiment: Antimicrobial activity against Bacillus subtilis ATCC 23857 assessed as inhibition of visible bacterial growth incubated for 18 hrs by broth microdilution method.
For assay [6], the system named is Staphylococcus epidermidis. The assay can be described thus: Antimicrobial activity against Staphylococcus epidermidis ATCC 12228 assessed as inhibition of visible bacterial growth incubated for 18 hrs by broth-dilution method.
The test system of a further assay is Enterococcus faecalis. The assay can be described thus: Antimicrobial activity against Enterococcus faecalis ATCC 29212 assessed as inhibition of visible bacterial growth incubated for 18 hrs by broth-dilution method.
Assay [7] has as its system Staphylococcus aureus. As to the kind of experiment: Antimicrobial activity against Staphylococcus aureus ATCC 25923 assessed as inhibition of visible bacterial growth incubated for 18 hrs by broth-dilution method.

In the case of `CN[C@@H]1[C@@H](O)[C@@H](O[C@@H]2[C@@H](O)[C@H](O[C@H]3O[C@H]([C@@H](C)NC)CC[C@H]3N)[C@@H](N)C[C@H]2N)OC[C@]1(C)O` [GENTAMICIN C1], the MIC in the assay on Escherichia coli was 2 µM (≈ 0.955 µg/mL); in the assay on Staphylococcus aureus [1] it was 32 µM (≈ 15.3 µg/mL); with Pseudomonas aeruginosa [2], 64 µM (≈ 30.6 µg/mL); with Acinetobacter baumannii it was 16 µM (≈ 7.64 µg/mL); in the assay with Klebsiella pneumoniae, 16 µM (≈ 7.64 µg/mL); in the assay on Pseudomonas aeruginosa [5] it was < 1 µM. Further, the MIC in the assay on Bacillus subtilis is < 1 µM; in assay [6], < 1 µM; in the assay with Enterococcus faecalis it was 16 µM (≈ 7.64 µg/mL); with Staphylococcus aureus [7], < 1 µM. Further, the “fold change (FC)” value in the assay with Pseudomonas aeruginosa [3] and in the assay on Staphylococcus aureus [4] was 32 throughout.
